Results on 12 compounds are retold here after ChEMBL document CHEMBL1201862, “PubChem BioAssay data set” (2004).

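Briefly, cells in 96-well plates were exposed to five compound concentrations for 48 h, and endpoints were estimated by linear interpolation. Abbreviation: GI50, concentration required for 50% inhibition of growth.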 Activity calls are given as the source filed them. Cut-off read from the data, not from the text of the source: active = GI50 up to about 1.1 µM and inactive = higher. Bounds are passed on as bounds.

Among the test systems are OVCAR-4; HCC 2998; U-251; Malme-3M; EKVX; MOLT-4; HT-29; SW-620; OVCAR-8; UO-31; M14; CCRF-CEM; HOP-62; SR; SK-MEL-2; COLO 205; OVCAR-5; NCI-H460; RPMI-8226.
Common to all, as to experiment: NCI anticancer screen, dose series, 48 h

In the case of `[O-][S+]1CSCS1` (centres undefined), the GI50 with OVCAR-4, in the assay on HCC 2998, with U-251, in the assay with Malme-3M, in the assay on EKVX and in the assay on MOLT-4 was > 100 µM (inactive) each time. For the same compound, the GI50 in the assay on HT-29, in the assay with SW-620, in the assay on OVCAR-8, in the assay on UO-31, in the assay on M14 and with CCRF-CEM was > 100 µM (inactive) each time. Besides, the GI50 in the assay on HOP-62, with SR, in the assay with SK-MEL-2, in the assay with COLO 205 and in the assay on OVCAR-5 was > 100 µM (inactive) in each case.

As for `CC1CC(C)C(=O)C(C(=O)CC2CC(=O)NC2=O)C1` (centres undefined), the GI50 in the assay on OVCAR-4, in the assay on HCC 2998, in the assay with U-251, in the assay on Malme-3M, in the assay on EKVX and in the assay on HT-29 was > 100 µM (inactive) each time. Further, the GI50 in the assay with NCI-H460, in the assay with SW-620, in the assay on OVCAR-8, in the assay on UO-31, in the assay on M14 and in the assay with CCRF-CEM was > 100 µM (inactive) throughout. Moreover, the GI50 in the assay on HOP-62, with SR, in the assay with RPMI-8226, in the assay with COLO 205 and with OVCAR-5 was > 100 µM (inactive) throughout.

Turning to `O=C(O)CNc1ncc2c(n1)-c1ccccc1OC2`, the GI50 with OVCAR-4, in the assay on U-251, with Malme-3M, in the assay with EKVX, in the assay on MOLT-4 and in the assay with HT-29 was > 100 µM (inactive) each time. For the same compound, the GI50 in the assay on NCI-H460, with SW-620, with OVCAR-8, in the assay with UO-31, with M14 and in the assay with CCRF-CEM was > 100 µM (inactive) throughout. The GI50 with HOP-62, with SR, in the assay on RPMI-8226, in the assay on SK-MEL-2, in the assay with COLO 205 and in the assay on OVCAR-5 was > 100 µM (inactive) throughout.

For the compound `S=C1OC2C3C4CC5C3C(O1)C1C5C4C21` (centres undefined), the GI50 with OVCAR-4, in the assay with HCC 2998, in the assay on U-251, in the assay on Malme-3M, in the assay with EKVX and in the assay with MOLT-4 was > 100 µM (inactive) throughout. Further, the GI50 was > 100 µM (inactive) with HT-29; 58.5 µM (inactive) in the assay on NCI-H460; > 100 µM (inactive) with SW-620; > 100 µM (inactive) with OVCAR-8; > 100 µM (inactive) with UO-31; > 100 µM (inactive) with M14. Moreover, the GI50 in the assay on CCRF-CEM, with HOP-62, with SR, with RPMI-8226, in the assay on COLO 205 and in the assay with OVCAR-5 was > 100 µM (inactive) in each case.

Turning to `Cc1cc(NS(=O)(=O)c2ccc(Nc3c4ccccc4nc4c(C(=O)Nc5ccc(S(=O)(=O)N=C(N)N)cc5)ccc(Cl)c34)cc2)no1`, the GI50 with OVCAR-4 is 28.5 µM (inactive); with HCC 2998 it was 38.5 µM (inactive); with U-251 it was 28.6 µM (inactive); in the assay with Malme-3M, 46.7 µM (inactive); with EKVX it was 65 µM (inactive); with MOLT-4, 24.7 µM (inactive). Further, the GI50 with HT-29 is 49.7 µM (inactive); in the assay with NCI-H460, 98.9 µM (inactive); with OVCAR-8, 19.3 µM (inactive); with UO-31 it was 34.5 µM (inactive); with M14, > 100 µM (inactive); with HOP-62 it was 22.1 µM (inactive). Besides, the GI50 was 25.2 µM (inactive) in the assay on SR, 29.8 µM (inactive) in the assay on RPMI-8226, 83 µM (inactive) in the assay with COLO 205 and > 100 µM (inactive) with OVCAR-5.

`C[C@@H]1CC[C@@H](C)[C@](C)(CCc2ccoc2)C/C=C\C=C/1C(=O)O`: the GI50 with OVCAR-4 is > 50 µM (inactive); with HCC 2998 it was > 50 µM (inactive); in the assay with U-251 it was > 50 µM (inactive); in the assay with Malme-3M it was > 50 µM (inactive); with EKVX it was > 50 µM (inactive); in the assay with MOLT-4, 31.8 µM (inactive). In addition, the GI50 with HT-29, in the assay with NCI-H460, in the assay with SW-620, in the assay on OVCAR-8, with UO-31 and in the assay on M14 was > 50 µM (inactive) in each case. For the same compound, the GI50 in the assay with CCRF-CEM, in the assay on HOP-62, with SR, with SK-MEL-2, with COLO 205 and in the assay on OVCAR-5 was > 50 µM (inactive) throughout.

With `CCn1cnc2c(=S)nc(N)[nH]c21`, the GI50 in the assay with HCC 2998, with U-251, in the assay on Malme-3M, with EKVX, in the assay with MOLT-4 and with HT-29 was > 100 µM (inactive) throughout. The GI50 in the assay on NCI-H460, with SW-620, with OVCAR-8, with UO-31, in the assay on M14 and in the assay on CCRF-CEM was > 100 µM (inactive) in each case. Also, the GI50 in the assay on HOP-62, in the assay on SR, in the assay with RPMI-8226 and in the assay on COLO 205 was > 100 µM (inactive) throughout.

For `CC1=NN2C=Nc3c(c(-c4ccc(Cl)cc4)cn3-c3ccc(C)cc3)C2N1` (centres undefined), the GI50 in the assay with OVCAR-4 was 6.24 µM (inactive); with HCC 2998 it was > 100 µM (inactive); in the assay with U-251 it was 76.2 µM (inactive); with Malme-3M, > 100 µM (inactive); in the assay with EKVX, > 100 µM (inactive); with HT-29, 64.4 µM (inactive). The GI50 is 56.6 µM (inactive) with NCI-H460; > 100 µM (inactive) in the assay on SW-620; 29.9 µM (inactive) with OVCAR-8; > 100 µM (inactive) in the assay on UO-31; > 100 µM (inactive) in the assay on M14; > 100 µM (inactive) in the assay with CCRF-CEM. In addition, the GI50 in the assay on HOP-62 was 36.5 µM (inactive); in the assay on SR, 0.288 µM (active); with SK-MEL-2, > 100 µM (inactive); in the assay on COLO 205, > 100 µM (inactive); in the assay with OVCAR-5, > 100 µM (inactive).

With `CN(C)NC1=C([N+](=O)[O-])C=NN(c2ccccc2)C1`, the GI50 in the assay with OVCAR-4 was 1.66 µM (inactive); in the assay with HCC 2998, 1.79 µM (inactive); in the assay with U-251, 1.76 µM (inactive); with Malme-3M, 1.96 µM (inactive); in the assay with EKVX, 1.75 µM (inactive); in the assay with MOLT-4 it was 2.09 µM (inactive). The GI50 was 1.95 µM (inactive) with HT-29; 2.09 µM (inactive) with NCI-H460; 1.89 µM (inactive) with SW-620; 2.04 µM (inactive) in the assay with OVCAR-8; 1.79 µM (inactive) in the assay on UO-31; 1.82 µM (inactive) with M14. The GI50 is 1.79 µM (inactive) in the assay with CCRF-CEM; 2.16 µM (inactive) in the assay on HOP-62; 0.811 µM (active) with SR; 1.71 µM (inactive) with SK-MEL-2; 1.79 µM (inactive) in the assay with COLO 205; 1.67 µM (inactive) with OVCAR-5.

As for `CC12N=NN(c3ccc([N+](=O)[O-])cc3)C1(O)c1ccccc1C2=O` (centres undefined), the GI50 with HCC 2998, in the assay on U-251, in the assay on Malme-3M, in the assay on EKVX, in the assay with HT-29 and in the assay on NCI-H460 was > 100 µM (inactive) each time. Moreover, the GI50 with SW-620, in the assay with OVCAR-8, in the assay on UO-31, in the assay with M14, in the assay with HOP-62 and in the assay with SR was > 100 µM (inactive) each time. Besides, the GI50 with RPMI-8226 and in the assay on COLO 205 was > 100 µM (inactive) in each case.

For `N#Cc1c(-c2ccco2)cc(-c2ccc(N)cc2)[nH]c1=O`, the GI50 in the assay on OVCAR-4, in the assay with HCC 2998, in the assay with U-251, in the assay with Malme-3M, in the assay with EKVX and in the assay on MOLT-4 was > 100 µM (inactive) in each case. Besides, the GI50 in the assay on HT-29, in the assay on NCI-H460, in the assay on SW-620, with OVCAR-8, in the assay with UO-31 and in the assay with M14 was > 100 µM (inactive) throughout. For the same compound, the GI50 with CCRF-CEM, with HOP-62, in the assay with SR, in the assay with RPMI-8226 and in the assay on OVCAR-5 was > 100 µM (inactive) throughout.

For the compound `CSCCCNC(=O)c1csc(-c2csc(CCNC(=O)CNC(=O)OC(C)(C)C)n2)n1`, the GI50 in the assay on OVCAR-4 is > 100 µM (inactive); with HCC 2998 it was > 100 µM (inactive); in the assay on U-251, > 100 µM (inactive); in the assay with Malme-3M, > 100 µM (inactive); with EKVX, > 100 µM (inactive); in the assay with MOLT-4 it was 40.7 µM (inactive). Moreover, the GI50 in the assay on HT-29, in the assay on NCI-H460, with SW-620, in the assay on OVCAR-8, in the assay on UO-31 and in the assay with M14 was > 100 µM (inactive) each time. The GI50 is 43.1 µM (inactive) in the assay on CCRF-CEM; > 100 µM (inactive) in the assay with HOP-62; > 100 µM (inactive) with SR; > 100 µM (inactive) in the assay with SK-MEL-2; > 100 µM (inactive) in the assay on COLO 205; > 100 µM (inactive) in the assay on OVCAR-5.
